# A melting point compilation (Tetko et al.; mined from patent text by program, amines drawn as free bases though some values may be those of a salt)
row,Structure (SMILES),melting point [°C]
1,CC1(C)CCC(C)(C)c2c(OCc3ccc(F)cc3)cc(C(=O)/C=C/c3ccc(C(=O)O)cc3)cc21,241
2,Nc1nc(N)c(-c2cc(Cl)cc(Cl)c2Cl)nc1CO,185 to 186
3,CC(C)(C)OC(=O)NC(CC(=O)NC1CC1)C1CC1 (stereo unspecified),166 to 168
4,CC(=O)N1CCC(C)(C)c2c(C)ccc(CCN3CCN(c4nsc5ccccc45)CC3)c21,132
5,CCc1cccc(C)c1C(=O)N[C@@H](Cc1ccc(-c2c(C(F)(F)F)cc(C)n(C)c2=O)cc1)C(=O)O,219 to 221
6,Cc1nc(-c2ccc3c(c2)COC(N[C@@H]2CCc4ccccc42)=N3)no1,138
7,CCCc1c(OCCCOc2ccc(C(=O)C(=O)O)cc2)ccc(C(=O)OC)c1O,86 to 87
8,COc1ccc(C(=O)Nc2cccnc2)cc1NC(=S)Nc1ccc(Cl)c(Cl)c1,179 to 180
9,CNc1nc(Cl)cc(NS(=O)(=O)c2cccc(C(F)(F)F)c2)n1,190 to 193
10,O=S1(=O)c2cccc3cccc(c23)N1CCN1CCC(CN2CCc3[nH]c4ccc(F)cc4c3C2)CC1,228
11,COc1cc(NC(=O)Nc2ccccc2)c(O)c(OC)c1OC,123 to 125
12,CCC1CCc2cc(CC(=O)O)ccc2O1 (stereo unspecified),88 to 90
13,CNc1ccccc1C(=O)c1c(OC)cc(C)cc1OC,215
14,O=C(NC1CCC(c2cc(Nc3cccc(C(F)(F)F)c3)n[nH]2)C1)C1CCC1 (stereo unspecified),232
15,O=c1c(CO)cc(-c2ccc3occc3c2)nn1Cc1ccc(F)cc1,158 to 160
16,O=C1CCc2c(Cl)cc(Cl)c(I)c21,170 to 172
17,COc1cc(N)c(Cl)cc1C(=O)NCC1CCN(CCCCCC(=O)c2cn(C)c3ccccc23)CC1,125 to 127
18,Nc1n[nH]c2cc(Br)ccc12,222 to 225
19,COc1cccc(C(C[N+](=O)[O-])SC(=S)N(C)C)c1OC(C)=O (stereo unspecified),124 to 126
20,C[C@@H]1[C@@H](NS(=O)(=O)c2ccc(F)cc2)CN1C(c1ccc(Cl)cc1)c1ccc(Cl)cc1,154 to 157
21,O=[N+]([O-])c1cccc(Nc2nc(Cl)nc(Cl)n2)c1,173
22,CC1(C)C2=C(CCC2=O)c2ccccc21,114
23,COc1ccc2c(c1)c(CCl)nn2Cc1ccccc1,78 to 80
24,Cc1nc(N2CCN(C)CC2)nc(N)c1-c1cc(Cl)cc(Cl)c1,164 to 166
25,CCc1cc(NC(=O)C(CS)Cc2ccccc2)cc(C(=O)O)c1 (stereo unspecified),159 to 160
26,CC(C(=O)O)c1ccccc1OS(C)(=O)=O (stereo unspecified),94 to 96

row,Structure (SMILES),melting point [°C]
1,CCC1C(=O)CCC(Cc2ccc(OC)cc2)(Cc2ccc(OC)cc2)C1C (stereo unspecified),106 to 107
2,Cc1ccccc1CNc1ncnc2c1ncn2C1OC(CO)C(O)C1O (stereo unspecified),162 to 164
3,O=C(NCc1ccccc1)C(Cc1c[nH]c2ccccc12)NC(=O)C(F)(F)F (stereo unspecified),186 to 188
4,CCc1cnc(CSc2cnc(NC(=O)c3ccccc3)s2)o1,122 to 123
5,Cc1cc(=O)n(C)c2[nH]n(-c3ccccc3)c(=O)c12,179 to 181
6,CCN(CC)S(=O)(=O)c1ccc2c(c1)S(=O)(=O)NC(C1CCCCC1)N2 (stereo unspecified),207 to 209
7,Cc1c(OCC(F)(F)F)ccnc1CS(=O)c1nc2ccccc2n1NCC(C)C (stereo unspecified),129 to 131
8,CC12CC=C3C4=C(CCC3C1CCC2=O)CC1(CC4)OCCO1 (stereo unspecified),110 to 112
9,COc1c(C)c(C)c(OC)c(C(O)(c2cccnc2)C2CCCCC2)c1C (stereo unspecified),134 to 135
10,COC(=O)COC1C(O)C(CO)OC(Oc2ccc(N)cc2)C1O (stereo unspecified),155
11,O=C(CNc1c(C(=O)O)[nH]c2cc(Cl)cc(Cl)c12)c1ccccc1Cc1ccccc1,234 to 235
12,CCCCC(CBr)CCCc1ccccc1 (stereo unspecified),31 to 33
13,COCCOCCNc1ncnc2c1cnn2-c1cc(C)cc(C)c1,90.4
14,CC(C)c1c(Sc2ccccc2)n(CC2CC=CC2)c(=O)[nH]c1=O,131 to 134
15,CCCc1nc2c(N)nc3ccccc3c2n1OC,210 to 211
16,Cc1cc(Cl)cc2c(=O)oc(-c3cc(OCC(F)(F)F)nn3-c3ncccc3Cl)nc12,178 to 180
17,CC(CCCC(C)(O)CO)C1CCC2C3CC=C4CC(O)CCC4(C)C3CCC12C (stereo unspecified),173 to 176
18,COC1(c2cc(F)cc(Sc3ccc(C(=O)C(F)(F)F)cc3)c2)CCOCC1,63
19,COC(=O)c1ccccc1-c1cc(-c2ccc(Cl)cc2)on1,85 to 86
20,CC1(CCl)Oc2ccc([N+](=O)[O-])cc2O1 (stereo unspecified),72 to 73
21,O=C(Nc1cccnn1)N1CCN(c2nc(-c3cccc(F)c3)cs2)CC1,176 to 177
22,O=C1c2cc(Br)cc(Br)c2CCC1n1ccnc1 (stereo unspecified),180 to 184
23,Cc1ccc2c(c1)c(=O)c1c(cnn1C)n2CC#N,214 to 219
24,NNC(=O)c1cnn(-c2ccc(N(CCO)CCO)nn2)c1N,217 to 219
25,COC(=O)C(C(=O)OC)c1ccccc1C(=O)O,119 to 120
26,CC(C)(C)CCC(=N)NC(=S)Nc1ccc(Cl)cc1,135 to 137

row,Structure (SMILES),melting point [°C]
1,COc1cc2c(cc1OC)CN(CCCc1cccc(NC(=O)c3cccc4c(=O)c5cccc(F)c5[nH]c34)c1)CC2,128
2,COc1ccc(Cl)cc1-c1c(S)c(=O)[nH]c2ccc(C(F)(F)F)cc12,239 to 241
3,COCCc1sc2ncnc(N)c2c1-c1ccc(NC(=O)Cc2cccc(C)c2)cc1,200 to 202
4,Nc1ccccc1C=C1c2ccccc2CCc2ccccc21,145
5,COc1ccc(OC2OC(COCc3ccccc3)C(OCc3ccccc3)C(O)C2OCc2ccccc2)cc1 (stereo unspecified),84 to 86
6,COc1ccc(C(=O)Nc2nc3ccc(N4CCN(C)CC4)cc3c(NCc3ccccc3)c2C#N)cc1,173
7,O=C(O)CCc1ccc(OCc2cccc(-c3cncnc3)c2)cc1,166 to 167
8,CNS(=O)(=O)N1CCn2c(c(C(N)=O)c(Cl)c2-c2ccccc2)C1,193 to 196
9,Cc1ccc(-c2ccc3c(c2)C(=O)CCC3)cc1,86 to 87
10,CCCN1CCc2c(cccc2NC(=O)c2ccc(OC)c(OC)c2)C1,146 to 147
11,CN(Cc1ccccc1)c1cc(Cl)c(C=O)c(Cl)c1,66 to 70
12,CC(=O)SCCC(=O)N(C)c1nnc(-c2cccnc2)s1,133 to 135
13,OC1(c2ccc(-c3cccnc3)cc2)CN2CCC1CC2 (stereo unspecified),172 to 173
14,CN(C)c1ccc(-n2c(N)nc3ccccc32)cc1-c1ccco1,208 to 210
15,CCc1nc(/C=C/c2cn(-c3ccccc3)nc2OCc2ccc(OCc3nc(-c4cccc(-c5noc(=O)[nH]5)c4)oc3C)c(OC)c2)cs1,139 to 140
16,CCCCC(O)CN1N=CCCC1c1ccc(F)cc1 (stereo unspecified),75 to 77
17,CCCCCCCCCCCCCCCc1ccc(CO)c(O)c1,94 to 95
18,CS(=O)(=O)c1ccc(-n2nc(C(F)(F)F)cc2-c2ccc(F)cc2)cc1,127 to 129
19,Cc1oc(-c2ccccc2)nc1COc1ccc(COc2ccc3ccccc3c2CC(=O)O)cc1,187 to 188
20,CCC(C)(C)NCC(O)c1ccc(N)c(C#N)c1 (stereo unspecified),143
21,CC(=O)OC1CSC(Oc2ccc(-c3cccnc3F)nc2)C(OC(C)=O)C1OC(C)=O (stereo unspecified),153
22,COC(=O)N(C)CCc1ccc2[nH]c(C)c(S(=O)(=O)c3ccccc3)c2c1,188 to 191
23,Cc1cnc2cccc(Oc3cc(-c4ccc(C(F)(F)F)cc4)ncn3)c2n1,139 to 141
24,COc1ccc2c(Cc3c(Cl)cncc3Cl)nncc2c1C=CCCCc1ccccc1,121 to 123
25,O=C(O)c1ccc(N(CCOc2cccc3ccccc23)C(=O)C(F)(F)F)cc1,167 to 168
26,Cc1nc2c(N)nc3cccnc3c2n1CC1(O)CCN(C(=O)OC(C)(C)C)CC1,233 to 235

row,Structure (SMILES),melting point [°C]
1,CC(C)c1ccc(N2C(=O)CN(c3cccc(C(=O)O)c3)C2=O)cc1,249 to 252
2,COC(=O)CC1c2cc(N(C)C)ccc2N(C(C)=O)C1C (stereo unspecified),122
3,CC(C)c1ccc2cc(C(=O)Nc3ccc(OCC(C)(C)C)c(C#N)c3)sc2n1,244 to 245
4,CC(=O)NCc1c(C)cc(CN2CCN(c3ccc(F)cc3)CC2)cc1C,163 to 164
5,O=C1NC(=O)C(C2CCc3cc(O)ccc32)S1 (stereo unspecified),108 to 112
6,NCC1CCN(c2ncc3ncnc(Nc4ccc(F)c(Cl)c4)c3n2)CC1,165
7,CN(C)c1ccc(-n2c(CC(=O)O)c(C(=O)O)c3cc(Oc4ccc(OC(F)(F)F)cc4)ccc32)cc1,188 to 192
8,O=C(CCNc1c(C(=O)O)[nH]c2cc(Cl)ccc12)c1ccc(F)cc1,248 to 250
9,CCOC(=O)c1ccn2c(=O)c(CC)c(C)nc2c1,95 to 96
10,CC(=O)C(=Cc1cc(Cl)c(S(C)(=O)=O)c(Cl)c1)C(C)=O,134 to 136
11,C#CCc1c(C)nc2c(OCc3c(C)cccc3N)cccn12,144 to 146
12,COc1ccccc1CP(C)(=O)C1CCCCC1 (stereo unspecified),108 to 110
13,Cc1ccc(C)c(CNc2cccc(S(=O)(=O)O)c2)c1,> 275
14,O=C(CCN1CCCCC1)Nc1ccc2[nH]c3ccc(NC(=O)CCN4CCCCC4)cc3c(=O)c2c1,> 320
15,O=S(=O)(NCc1ccncc1)c1ccc(Br)s1,159
16,CC(C)N(C(=O)Cn1cncn1)c1ccccc1,125
17,CC(=O)OCC1OC(n2c(Cl)c(C=O)c3cc(Cl)c(Cl)cc32)C(O)C1O (stereo unspecified),154 to 155
18,CC(C)C1(C)NC(c2ccccc2C(=O)O)=NC1=O (stereo unspecified),162 to 163
19,CCn1cc(C(=O)O)c(=O)c2cc(F)c(N3CCC(C(C)N)C3)c(F)c21 (stereo unspecified),212 to 217
20,O=C(Cc1ccc(C(F)(F)F)cc1)c1ccccc1,143 to 144
21,CN1CC(CCCN2CCN(c3ccccc3O)CC2)OC1=O (stereo unspecified),112 to 116
22,CC(=O)OCCC1CCCN(C(=O)c2ccc(NC(=O)c3ccccc3Cl)nc2)c2ccc(Cl)cc21 (stereo unspecified),151 to 153
23,N#Cc1cccc(C(=O)Nc2ccccc2N)c1,197 to 200
